This note sets out measurements from ChEMBL document CHEMBL4483862, “Open-source discovery of chemical leads for next-generation chemoprotective antimalarials” (2018).

This assay relates to Plasmodium berghei. Briefly: Luciferase/luciferin-expressing antifolate-resistant parasites were used to infect a culture of HepG2 cells that were pre-incubated with compounds. Infected hepatocytes emit light due to the luciferase reaction. Assay results are presented as the percent inhibition of light emission compared to control. […]. The note with it: sporozoite; for IC50: read-out: LUCIFERASE INFECTION ASSAY - IC50; for IC90: read-out: LUCIFERASE INFECTION ASSAY - IC90. In kind it is functional.

For orientation: IC50 means the concentration at which inhibition is half-maximal. What is called IC90 is the concentration at which the effect reaches the 90% level. For the compound `Cc1ccc2nc(C)c(CN3CCN(c4ccc([N+](=O)[O-])cc4Cl)CC3)n2c1`, the IC50 is > 10 µM and the IC90 is > 10 µM.

With `CCCc1ccc(C(=O)C(C)Sc2nnc(-c3ccc(OC(F)F)cc3)o2)cc1` (stereo unspecified), the half-maximal inhibitory concentration (IC50) was > 10 µM and the IC90 is > 10 µM.

With `COc1cc(OC)cc(C2c3c(C)nn(-c4ccccc4)c3NC(=O)C2NC(=O)c2ccccc2)c1` (stereo unspecified), the IC50 was > 10 µM and the IC90 is > 10 µM.

Take `COc1ccccc1NCC(=O)N/N=C/c1cc(C)c2cc(C(C)C)ccc(C)c1-2`: the concentration for half-maximal inhibition (IC50) is > 10 µM and the IC90 is > 10 µM.

Take `N#C/C(=C\c1cn(Cc2ccccc2)nc1-c1cccnc1)c1ccc([N+](=O)[O-])cc1`: the concentration for half-maximal inhibition (IC50) came out at 0.786 µM and the IC90 was 1.62 µM.

For the compound `CC(C)(C)c1ccc(OCC(=O)NNC(=O)Cc2csc(-c3ccccc3)n2)cc1`, the IC50 was > 10 µM and the concentration for an effect of 90% (IC90) is > 10 µM.

Take `COC(=O)C(C(=O)CSc1nnc(-c2ccc(C(C)(C)C)cc2)n1C)=C1Nc2ccccc2N1`: the concentration for half-maximal inhibition (IC50) is > 10 µM and the IC90 was > 10 µM.

Turning to `CCOc1ccccc1NC(=O)COC(=O)c1cc(S(=O)(=O)Nc2cccc(C)c2)ccc1C`, the concentration for half-maximal inhibition (IC50) was > 10 µM and the concentration for an effect of 90% (IC90) was > 10 µM.

For the compound `Cc1cc(OCC(=O)/N=c2/sccn2C)c(C(C)C)cc1Cl`, the half-inhibitory concentration (IC50) is > 10 µM and the IC90 is > 10 µM.

Turning to `CC(C(=O)Nc1cccc(S(=O)(=O)N2CCOCC2)c1)N(C)Cc1cccc(Cl)c1Cl` (stereo unspecified), the half-inhibitory concentration (IC50) is > 10 µM and the concentration for an effect of 90% (IC90) was > 10 µM.

For `COc1cc2c(cc1/C=C/C(=O)N(Cc1nc(=O)c3ccccc3[nH]1)CC1CCCO1)OC(C)C2` (stereo unspecified), the IC50 was > 10 µM and the 90% effect concentration (IC90) is > 10 µM.

In the case of `Cc1cc(C)cc(N(C(=O)C23CC4CC(CC(C4)C2)C3)C2C=CS(=O)(=O)C2)c1` (stereo unspecified), the IC50 was > 10 µM and the IC90 is > 10 µM.

As for `C/C(c1cccs1)=[N+](/[O-])C(C)/C(=N/O)c1ccco1` (stereo unspecified), the IC50 was > 10 µM and the concentration for an effect of 90% (IC90) is > 10 µM.

As for `COc1ccc(Cl)cc1NC(=O)CN(C)C(=O)c1cc(-c2ccccc2)nc2c1cnn2C(C)C`, the IC50 is > 10 µM and the IC90 is > 10 µM.

Take `CC1(NC(=O)COC(=O)c2cc(Cl)c3c(c2)OCO3)CCS(=O)(=O)C1` (stereo unspecified): the 50% inhibitory concentration (IC50) is > 10 µM and the 90% effect concentration (IC90) was > 10 µM.

As for `CCc1ccccc1Nc1nc(N)nc(CN2CCN(S(=O)(=O)Cc3ccccc3)CC2)n1`, the IC50 is > 10 µM and the IC90 is > 10 µM.

As to `Cc1ccccc1OCCCn1c(CCCNC(=O)c2ccco2)nc2ccccc21`, the IC50 is > 10 µM and the 90% effect concentration (IC90) was > 10 µM.

In the case of `Cc1oc2cc(OC(C)C(=O)Nc3cccc([N+](=O)[O-])c3)ccc2c(=O)c1-c1ccccc1` (stereo unspecified), the IC50 was determined as 8.01 µM and the IC90 is > 10 µM.

With `CCOC(=O)c1c(NC(=O)COC(=O)c2c(C)noc2C)sc(-c2ccccc2)c1C`, the half-inhibitory concentration (IC50) is > 10 µM and the IC90 is > 10 µM.

As for `Cc1nc(SCC(=O)NCCN2C(=O)CSC2=O)n(C2CCCCC2)c1C`, the IC50 is > 10 µM and the IC90 is > 10 µM.

Turning to `Cc1c(NC(=O)c2cccc(Nc3nc(-c4cccs4)nc4ccccc34)c2)c(=O)n(-c2ccccc2)n1C`, the 50% inhibitory concentration (IC50) was 9.1 µM and the IC90 was > 10 µM.

With `c1ccc(CN2CCC(Nc3nc(-c4ccccn4)nc4scc(-c5ccccc5)c34)CC2)cc1`, the IC50 was > 10 µM and the 90% effect concentration (IC90) is > 10 µM.

As to `COC(=O)c1ccc2c(=O)nc(CSc3nnc(-c4ccccc4)c(-c4ccccc4)n3)[nH]c2c1`, the IC50 was > 10 µM and the IC90 is > 10 µM.

`CC1CCc2sc(C(=O)OCC(=O)NCCN3C(=O)CSC3=S)cc2C1` (stereo unspecified): the half-maximal inhibitory concentration (IC50) is > 10 µM and the 90% effect concentration (IC90) was > 10 µM.

Take `Cn1c(C(=O)N2CCN(C(c3ccccc3)c3ccccc3)CC2)cc2c(=O)n3ccccc3nc21`: the concentration for half-maximal inhibition (IC50) was > 10 µM and the IC90 was > 10 µM.

For the compound `Cc1cccn2cc(CN3CCN(S(=O)(=O)c4ccc(Cl)c(C(F)(F)F)c4)CC3)nc12`, the IC50 is > 10 µM and the IC90 was > 10 µM.

Consider `CC(=O)N1CCC(C(=O)Nc2cc(C(F)(F)F)ccc2NC2CCCCC2)CC1`, for which the IC50 was > 10 µM and the IC90 is > 10 µM.

`C=CCN(C(=O)c1ccccc1OCc1c(C)noc1C)c1nc2c(s1)CCCC2`: the IC50 was > 10 µM and the concentration for an effect of 90% (IC90) is > 10 µM.

As for `O=[N+]([O-])c1cc2c(cc1C(O)c1nnc(-c3ccccc3)o1)OCO2` (stereo unspecified), the IC50 is 1.69 µM and the IC90 stood at 8.01 µM.

With `COc1ccccc1-n1c(SCc2cc(=O)oc3c(C)c(C)ccc23)nc2ccccc2c1=O`, the IC50 was > 10 µM and the 90% effect concentration (IC90) is > 10 µM.

For `Cc1sc2ncnc(Sc3ccccc3C(=O)NNc3c(Cl)cc(Cl)cc3Cl)c2c1C`, the half-inhibitory concentration (IC50) was > 10 µM and the IC90 was > 10 µM.

Consider `O=C(NCCc1c[nH]c2ccccc12)c1ccc2c(c1)CC(c1ccccc1)OC2=O` (stereo unspecified), for which the half-inhibitory concentration (IC50) was > 10 µM and the concentration for an effect of 90% (IC90) was > 10 µM.

On to `CCOC(=O)c1[nH]c(C)c(C(=O)OCC(=O)Nc2ccc(S(=O)(=O)NC3=NCCCCC3)cc2)c1C`, for which the half-inhibitory concentration (IC50) was > 10 µM and the concentration for an effect of 90% (IC90) is > 10 µM.

With `O=C(C1CC(=O)N(c2ccccc2F)C1)N1CCN(c2ccc(C(F)(F)F)cn2)CC1` (stereo unspecified), the concentration for half-maximal inhibition (IC50) is > 10 µM and the IC90 is > 10 µM.

With `COc1cc(NC(=O)CSc2nc(N)c3c4c(sc3n2)CCCC4)c(C)cc1[N+](=O)[O-]`, the 50% inhibitory concentration (IC50) was 3.53 µM and the IC90 was > 10 µM.

Regarding `Cc1c(C(=O)OCC(=O)/C=C2\N(C)c3ccccc3C2(C)C)sc2nc3n(c(=O)c12)CCC3`, the IC50 was > 10 µM and the 90% effect concentration (IC90) was > 10 µM.

Regarding `C=C(C)C1CC=C(C)/C(=N\NC(=O)C(=O)N/N=C2/CC(C(=C)C)CC=C2C)C1` (stereo unspecified), the IC50 was > 10 µM and the IC90 was > 10 µM.

For the compound `COc1ccccc1NC(=O)c1cc2ccccc2c(CN2CCN(c3ccccc3)CC2)c1O`, the IC50 was > 10 µM and the IC90 was > 10 µM.

With `CCCCCCn1c(SCC(=O)Nc2sc(C(=O)N(CC)CC)c(C)c2C(=O)OCC)nc2ccccc21`, the IC50 was > 10 µM and the IC90 was > 10 µM.

Consider `CCOC(=O)c1sc(N)c(C#N)c1CSc1nnc(-c2ccncc2)n1-c1ccc(CC)cc1`, for which the 50% inhibitory concentration (IC50) was > 10 µM and the IC90 is > 10 µM.

As to `CCCCOc1ccc(C(=O)Nc2ccc(N(c3ccccc3)C(C)C)cc2)cc1OCC`, the IC50 is > 10 µM and the IC90 is > 10 µM.

For `CC(C)(C)c1ccc(OCC(=O)N2CCC(C(N)=O)CC2)cc1`, the concentration for half-maximal inhibition (IC50) is > 10.4 µM and the IC90 is > 10.4 µM.

As for `Cc1cc(O)c(C(C)C)cc1NC1=NC(=O)S/C1=C\c1cc(Cl)ccc1OCC(=O)Nc1ccc(Cl)cc1`, the half-inhibitory concentration (IC50) stood at 2.98 µM and the 90% effect concentration (IC90) is 3.24 µM.

In the case of `Cc1ccc(Cn2nc(C)c(C(=O)OCC(=O)/C=C3\N(C)c4ccccc4C3(C)C)c2Cl)cc1`, the IC50 is > 10 µM and the 90% effect concentration (IC90) was > 10 µM.

As to `CC(C)OCCCNCC(O)COCc1ccccc1Cl` (stereo unspecified), the IC50 is > 10 µM and the IC90 was > 10 µM.

As to `CC(C)Cn1c(N)c(C(=O)COC(=O)Cn2c(C(F)(F)F)nc3ccccc32)c(=O)n(C)c1=O`, the concentration for half-maximal inhibition (IC50) was > 10 µM and the IC90 is > 10 µM.

With `Cc1sc2ncnc(N3CCC(C(=O)Nc4nnc(-c5cccc([N+](=O)[O-])c5)o4)CC3)c2c1C`, the half-inhibitory concentration (IC50) is > 10 µM and the IC90 is > 10 µM.

Regarding `O=C(COC(=O)c1ccc(-n2ncc(Cl)c(Cl)c2=O)cc1)Nc1ccc(F)cc1`, the 50% inhibitory concentration (IC50) is > 10 µM and the IC90 was > 10 µM.

Regarding `O=C(O)c1ccc(N=C2C=C(NS(=O)(=O)c3ccc(Cl)cc3)c3ccccc3C2=O)cc1`, the IC50 is > 10 µM and the IC90 was > 10 µM.

As for `O=C(CN1CCN(Cc2ccc(-n3cccn3)cc2)CC1)Nc1ccc(OC(F)(F)F)cc1`, the IC50 was > 10 µM and the IC90 is > 10 µM.

Regarding `Cc1ccc(-n2c(SCC(=O)NCCN3C(=O)S/C(=C\c4ccc(C(C)(C)C)cc4)C3=O)nc3sc4c(c3c2=O)CCCC4)c(C)c1`, the IC50 was > 10 µM and the IC90 is > 10 µM.

With `CN(C)c1ccc(C(c2cc(C(C)(C)C)c(O)c(C(C)(C)C)c2)N2CCCCC2)cc1` (stereo unspecified), the half-maximal inhibitory concentration (IC50) was > 10 µM and the 90% effect concentration (IC90) is > 10 µM.

With `Cc1ccc2c(C)cc(Sc3nc4ccccc4s3)nc2c1`, the 50% inhibitory concentration (IC50) was > 10 µM and the IC90 was > 10 µM.

`COC(=O)c1c(COC(=O)/C=C/c2ccc(OCC#N)c(OC)c2)nc2ccccc2c1-c1ccccc1`: the IC50 was > 10 µM and the IC90 was > 10 µM.

Take `CCOc1ccc(-c2nc(NC(=O)c3ccc(OC)c(S(=O)(=O)N(C)OC)c3)sc2C)cc1`: the IC50 is > 10 µM and the IC90 is > 10 µM.

For the compound `CC1(c2cc(F)ccc2F)NC(=O)N(CC(=O)c2cn(CCC#N)c3ccccc23)C1=O` (stereo unspecified), the IC50 is > 10 µM and the IC90 was > 10 µM.

With `CCC(C)c1ccc(S(=O)(=O)N2CCN(C(C)C(=O)N3c4ccccc4CC3C)CC2)cc1` (stereo unspecified), the IC50 is > 10 µM and the IC90 is > 10 µM.

For `Cc1c(C(=O)Nc2ccc(N3CCOCC3)cc2N2CCOCC2)oc2ccc(F)cc12`, the IC50 is > 10 µM and the IC90 is > 10 µM.

Regarding `Cc1ccc(S(=O)(=O)c2ccc(NNS(=O)(=O)c3cccc([N+](=O)[O-])c3)cc2)cc1`, the half-inhibitory concentration (IC50) was > 10 µM and the IC90 is > 10 µM.

As to `CCCCn1nc(C(=O)NC(c2ccccc2)c2ccc(OC)cc2)c2ccccc2c1=O` (stereo unspecified), the IC50 is > 10 µM and the 90% effect concentration (IC90) is > 10 µM.

Turning to `FC(F)Oc1ccccc1/C=N/n1c(-c2ccc3c(c2)OCCO3)cs/c1=N\CC1CCCO1` (stereo unspecified), the IC50 was > 10 µM and the IC90 was > 10 µM.

In the case of `O=S(=O)(Nc1ccc(OC(F)F)c(Cl)c1)c1ccc(Cl)c(Cl)c1`, the IC50 is > 10 µM and the 90% effect concentration (IC90) is > 10 µM.

`O=C(Cn1cnc2sc(-c3ccccc3)cc2c1=O)Nc1nc(CN2CCCCC2)cs1`: the IC50 was > 10 µM and the IC90 is > 10 µM.
